# Results taken from publication PMC5110965, “Evolutionarily conserved odorant receptor function questions ecological context of octenol role in mosquitoes” (Scientific Reports, 2016).
# How the values were obtained:
# TaOR8 [1] = system: T1, TaOR8; experiment: two-electrode voltage clamp in Xenopus oocytes, concentration-response; format: cell-based, Toxorhynchites amboinensis
# T1 construct: gene Or8; with TaORco
# TaOR8 [2] = system: T1, TaOR8; experiment: two-electrode voltage clamp; […] DEET against […] (R)-octenol response; format: cell-based, Toxorhynchites amboinensis; conditions: 1000 µM
SMILES,EC50 (TaOR8 [1]),% inhibition at 10^-3 M (TaOR8 [2])
"C=CC(O)CCCCC (racemic) [(RS), (RS)-1-octen-3-ol]",3.29 µM,
"C=C[C@H](O)CCCCC [(R), (R)-(−)-1-octen-3-ol]",0.401 µM,
"C=C[C@@H](O)CCCCC [(S), (S)-(+)-1-octen-3-ol]",50.6 µM,
"CCN(CC)C(=O)c1cccc(C)c1 [DEET, N,N-Diethyl-meta-toluamide]",,90
